{"source": "paper PMC2866155", "about": "(Chemical biology & drug design, 2009)", "format_in_all_cases": "cell-based", "key": {"SKBR-3 cells": {"tested_on": "SKBR-3 cells", "assay": "MTT antiproliferative assay, SKBR-3", "conditions": "Homo sapiens, SK-BR-3, 72 h, read-out: SKBR-3 IC50"}, "MCF-7 cells": {"tested_on": "MCF-7 cells", "assay": "MTT antiproliferative assay, MCF-7", "conditions": "Homo sapiens, MCF7, 72 h, read-out: MCF-7 IC50"}, "HCT116 cells": {"tested_on": "HCT116 cells", "assay": "MTT antiproliferative assay, HCT116", "conditions": "Homo sapiens, HCT-116, 72 h, read-out: HCT116 IC50"}}}
{"smiles": "COc1ccc(C=Cc2cc(NC(=O)c3ccc(C(N)=NO)cc3)cc(OC)c2)cc1", "note": "[HERP6, 4-(N'-hydroxycarbamimidoyl)-N-[3-methoxy-5-(4-methoxystyryl)phenyl] benzamide]", "values": [{"measurement": "IC50", "setting": "SKBR-3 cells", "value": 1.62, "unit": "µM"}, {"measurement": "IC50", "setting": "MCF-7 cells", "value": 9.2, "unit": "µM"}, {"measurement": "IC50", "setting": "HCT116 cells", "value": 11.9, "unit": "µM"}]}
